Reference: patent publication US20140154717A1, “METHOD FOR DETECTING CANCER CELL USING FLUORESCENTLY LABELED L-GLUCOSE DERIVATIVE, AND CANCER CELL-IMAGING AGENT COMPRISING FLUORESCENTLY LABELED L-GLUCOSE DERIVATIVE” (priority 2011, published 2014)

Test system: mouse insulinoma cells (MIN6)
Assay: Confocal imaging of tumor cell clusters composed of mouse insulinoma cells (MIN6) using 2-NBDLG
Assay type: cell-based
Conditions: 100 μM, perfusion 3 minutes, just after washout; MIN6 cultured 11 days
Description: Culture medium containing MIN6 cells suspended at a proportion of 10×10^4 cells/mL was dispersed by pipetting, and dropped on a glass cover slip, then, allowed to stand still in a 5% CO2 incubator for 20 minutes to cause adhesion to the glass surface, and 3 mL of the culture medium was added, and the cells were cultured. The half quantity of the culture medium was exchanged every two days.
MIN6 cells (provided by Professor Miyazaki Junichi, Osaka University, and the passage number was six to nine times) were seeded on a 10 cm petri dish, allowed to stand still in a CO2 incubator, and cultured at 37° C. The half quantity of the culture medium was exchanged every two days.
High glucose-containing Dulbecco's modified Eagle's Medium (DMEM-HG) (SIGMA #D5648) (13.4 g), NaHCO3 (Wako, No. 191-01305) (3.4 g) and 2-Mercaptoethanol (Wako, No. 135-14352) (5 μL) were dissolved in 1 liter of ultra-pure water (Mili Q), and equilibrated with ambient air. Next, pH was adjusted to 7.3 to 7.35 using 1N HCl in a CO2 incubator at 37° C., and sterilized by suction filtration. Directly before use, Hyclone Fetal Bovine Serum (Cat# SH30070.03) was added so as to give a final concentration of 10% and penicillin-streptomycin (Gibco #15140) was added so as to give a final concentration of 0.5%.
MIN6 cells were prepared with culture medium so that the cell number was 10×10^4 cells/mL.
The whole quantity of one vial of 0.5 mg 2-NBDLG was dissolved in 14. 6 mL of a HEPES solution for image acquisition, for preparing a 2-NBDLG solution having a final concentration of 100 μM.
NaCl 131.8 mM, KCl 4.75 mM, KH2PO4 1.19 mM, MgCl2 1.2 mM, CaCl2 1 mM, NaHCO3 5.0 mM, D-Glucose 2.8 mM, HEPES 10 mM (adjusted to pH 7.35 with 1M NaOH). For inhibiting entrance and elimination of fluorescently labeled glucose via a gap junction/hemichannel, 0.1 mM Carbenoxolone (SIGMA #C4790) was added. The HEPES solution for image acquisition was used as a solution for preparing a 2-NBDLG solution and as a solution for preparing a 2-NBDLG/2-TRLG solution. […]

Structure (SMILES): O=[N+]([O-])c1ccc(NC2C(O)OC(CO)[C@H](O)C2O)c2nonc12 (stereo partly drawn) [2-NBDLG, 2-[N-(7-Nitrobenz-2-oxa-1,3-diazol-4-yl)amino]-2-deoxy-L-glucose]
- uptake into cell cluster (a), developed cluster with abnormal nuclei: intense uptake
- uptake into cell cluster (b), normal nucleus morphology: only a slight uptake
- uptake into cell cluster (c), two-dimensionally accumulated planar cluster: almost no increase in the fluorescence intensity
